Data set [1] concerns AQP4-specific CD4+ T cells. The data set is described as follows: Phenotype of CD4+ T cells from AQP4 KO C57BL/6 mice immunized with AQP4 peptide. The data set is classed as in vivo. As for the experimental part:
The C57BL/6 (H-2b) strain is the elective animal model as its natural repertoire of CD4+ T cells contains cells activable by immunisation with AQP4 epitopes whose sequences are entirely superposable to those activating human CD4+ T cells. Besides, the homology between human and mouse AQP4 is 93%. However, due to natural tolerance to AQP4, it remains difficult to generate T cells with a pathogenic potential. Therefore, C57BL/6 mice lacking expression of AQP4 (AQP4 KO) are used.
is used at 100 μg emulsified in complete Freund's adjuvant to immunize AQP4 KO C57BL/6 mice in the footpad, followed by 3 injections of 100 μg in incomplete Freund's adjuvant at 10-days intervals. Four weeks after the last injection, the mice are sacrificed and splenocytes are prepared. After separation of CD4+ T cells from the bulk splenocytes, lymphocytes specific for peptide of SEQ ID NO:1 are isolated by incubation with magnetic beads coated with class II (H2b) molecules loaded with peptide of SEQ ID NO:1.
AQP4-specific CD4+ T cells are then phenotyped and found to belong to the Th17 subtype.
A similar experiment is carried out in AQP4 KO C57BL/6 mice immunized with the same peptide, but containing a redox motif (in bold) in its flanking residues (SEQ ID NO:2), and with alum instead of CFA/IFA

Data set [2] deals with wildtype C57BL/6 mice. The data set is described as follows: IV transfer of peptide-elicited CD4+ T cells into wildtype C57BL/6 mice, spinal cord examination. The class given is in vivo. The note with it: 10^6 peptide-elicited CD4+ T cells per mouse IV, spinal cord ten days afterwards. As for the experimental part: Such cells are then administered by IV injection in wildtype C57BL/6 mice (10^6 cells per mouse). Ten days afterwards, mice are sacrificed and the spinal cord isolated.
In a control experiment, 10^6 cells are administered by IV injection in wildtype C57BL/6 mice.

Data set [3] relates to C57BL/6 female mice. As for the experimental part:
C57BL/6 female mice are treated with an injection of 100 μl containing 200 μg of peptide encompassing amino acid residues […], namely:
and 100 μl of complete Freund's adjuvant. In addition, […] of pertussis toxin is administered intraperitoneally on days 0 and 2 to permeate the blood-brain barrier.
One month after the date of disease induction, the spinal cord is examined for inflammatory infiltrates. Tissues are fixed in formaldehyde and stained with hematoxilin-eosin for cell counting. T cells are identified using an anti-CD3 antibody. Demyelination is detected by staining with Luxol Fast Blue (LFB).
To establish that cells of the present invention exert a suppressive effect on pathogenic T cells, two group of C57BL/6 female mice was treated by 4 weekly subcutaneous injections of 100 μg of peptide
corresponding to peptide of SEQ ID NO:5 but containing a redox motif (in bold). These injections were made with a formulation containing aluminum hydroxide as adjuvant.
A second group of mice immunized with peptide of SEQ ID NO:6 was then treated as in the positive control group, namely peptide of SEQ ID:5 with complete Freund's adjuvant and pertussis toxin.

Data set [4] deals with cells obtained by stimulation with peptide of SEQ ID NO:7. Put plainly: Coculture of CFSE-labelled SEQ ID NO:7 cells with SEQ ID NO:8 cells, proliferation by CFSE dilution. The class given is cell-based, Balb/c mice. As for the experimental part: Cells obtained by stimulation with peptide of SEQ ID NO:7 were labelled with CFSE and cultured together with cells obtained with peptide of SEQ ID NO:8 at a 1 to 1 ratio on antigen-presenting cells loaded with peptide of SEQ ID NO:7.
After 7 days of coculture, the proliferation of cells was measured by CFSE dilution.

The subject of data set [5] is CD4+ T cells. The data set is described as follows: Phenotype and cytokine production of Balb/c CD4+ T cells expanded in vitro with Staph. aureus nuclease peptides. The data set is classed as cell-based, Balb/c mice. The note with it: after 2 cycles of stimulation on peptide-loaded antigen-presenting cells. As for the experimental part: Balb/c mice kept under open conditions (not pathogen-free) show specific antibodies and CD4+ T cells towards Staph. aureus nuclease. Splenocytes are obtained from such mice to prepare CD4+ T cells. Such cells are cultured and expanded in the presence of antigen-presenting cells loaded with either peptide of sequence
After 2 cycles of stimulation, the phenotype and cytokine production of cells are examined. […] Other markers of CD4+ T cells with an immune suppressive function include DLL4 (Rubey et al. Diabetes 2020 69(5):915-926, CTLA2 (Sugita et al. J Immunol 2009 183(8):5013-22), TGF-beta2 (Mir et al. Immunology 2015 146(4):547-56, arginase (Khoshnejad et al. Mol Ther Methods Clin Dev 2020 18:652-663 and meteorin (Baht et al. Nat Metab 2020 2(3):278-289)

Data set [6] relates to Thy1.1 CD4+ T cells obtained by immunisation with peptide of SEQ ID NO:1. The data set is described as follows: Mixed culture of Thy1.1 and Thy1.2 CD4+ T cells on antigen-presenting cells loaded with peptide of SEQ ID NO:1. The class given is cell-based, C57BL/6 mice. The note with it: 1/1 mixture with Thy1.2 CD4+ T cells elicited by SEQ ID NO:2, 7 days of culture. As for the experimental part: Next, to determine whether CD4+ T cells obtained by immunisation with peptide of SEQ ID NO:2 could suppress pathogenic CD4+ T cells obtained by immunisation with peptide of SEQ ID NO:1, mixed cultures were performed with antigen-presenting cells loaded with peptide of SEQ ID NO:1. For such in vitro experiments, the two CD4+ T cell populations were obtained from C57BL/6 mice expressing either the Thy1.1 or the Thy1.2 surface phenotypic marker, identified by specific antibodies.
Dendritic cells converted from peripheral blood monocytes were used as antigen-presenting cells. Thus, 50×10^6 cells were incubated with 10 μg of peptide of SEQ ID NO:1 for 16 h at room temperature, washed and then incubated with a 1/1 mixture of Thy1.1 CD4+ T cells obtained by immunisation with peptide of SEQ ID NO:1 and Thy1.2 CD4+ T cells obtained by immunisation with peptide of SEQ ID NO:2. The phenotype of each CD4+ T cell population was then evaluated after 7 days of culture.

For data set [7], the system named is CD4+ obtained from the spleen of mice immunized with peptide of SEQ ID NO:3. Put plainly: Co-culture of CFSE-labelled CD4+ cells (SEQ ID NO:3) with CD4+ T cells from mice immunized with SEQ ID NO:4. The class given is cell-based, NOD mice.
In data set [8] the test system is NOD mice. Put plainly: Insulitis by pancreas histology in immunized NOD mice. The note with it: female NOD mice, 100 μg in aluminium hydroxide four times at a week interval from six weeks old, histology at week 15. The data set is classed as in vivo. The text has this: Non-obese diabetes (NOD) mice are the most used animal model for diabetes due to the spontaneous development of insulitis, hyperglycaemia and diabetes in a context wherein both inflammation and auto-immunity play determining roles. The local lesion, insulitis, starts accumulating after a few weeks, so that therapeutic interventions should be considered as suppressive rather than preventive.
Six-weeks old female NOD mice are immunized with a peptide made of a class II-restricted T cell epitope of GAD65 (319-333: ILEVKQKGFVPFLVS, SEQ ID NO:3) or with the same peptide containing a redox motif (bold figures) in its flanking residues
Immunisation is carried out using 100 μg of peptide of SEQ ID NO:4 in aluminium hydroxide, four times at a week interval. Control mice receive peptide of SEQ ID NO:3 according to the same injection schedule.
Mice are then sacrificed at week 15, the pancreas is isolated and evaluated by histology to identify insulitis.

Setting [9] is: AQP4 KO C57BL/6 mice immunized with peptide in alum.

Where a SMILES comes first, the peptide text is derived from it.

Consider “SIMVAFKGVWTQAFWKAV (AQP4 epitope; (4)..(15) core epitope) [SEQ ID NO:1, peptide encompassing amino acid residues 21-38 of AQP4, no redox motif, reference compound]”, for which the “subtype of AQP4-specific CD4+ T cells” value in data set [1] (AQP4 KO C57BL/6 mice, 100 μg in CFA then 3 x 100 μg in IFA, splenocytes four weeks after last injection) is “Th17 subtype”. Moreover, in data set [2], the “spinal cord inflammatory lesions / infiltration” value is on record as “Infiltration with inflammatory cells, including AQP4-specific CD4+ T cells is observed”.
For TGILDSIGRFFSG (MBP) [SEQ ID NO:5], the “demyelination by Luxol Fast Blue (LFB) staining” value in data set [3] (SEQ ID NO:5 = disease induction, SEQ ID NO:6 = 4 weekly sc 100 μg in aluminum hydroxide before induction) was “signs of demyelination”. The “T lymphocyte / inflammatory infiltrates in the spinal cord” value in data set [3] (hematoxilin-eosin and anti-CD3, SEQ ID NO:5 = disease induction, SEQ ID NO:6 = 4 weekly sc 100 μg in aluminum hydroxide before induction) is given as “significant infiltrates including T lymphocytes”.
As for “HCYPCHNTHEQHLRKS (Sa Nucleaseredox) [SEQ ID NO:8, Staph. aureus nuclease peptide containing a redox motif]”, in data set [4] (1 to 1 ratio, antigen-presenting cells loaded with SEQ ID NO:7, 7 days of coculture), the “proliferation of SEQ ID NO:7-obtained cells in presence of SEQ ID NO:8-obtained cells (CFSE dilution)” value is on record as “do not proliferate”. Moreover, the “phenotype of SEQ ID NO:8-obtained cells after coculture” value in data set [4] (7 days of coculture on antigen-presenting cells loaded with SEQ ID NO:7) is “unchanged phenotype”. Further, in data set [5], the “cytokine production of cells obtained by stimulation” value was “IL-4, IL-10, IL-13 and amphiregulin (AREG)”; the “surface expression on cells obtained by stimulation” value is “TIGIT and BLIMP-1”.
Take “HCPYCSIMVAFKGVWTQAFWKAV (AQP4redox; (9)..(20) core epitope) [SEQ ID NO:2, same AQP4 peptide containing a redox motif in its flanking residues]”: in data set [1] (setting [9]), the “factors produced by CD4+ T cells obtained from the spleen” value is “PGE2 (prostaglandin E2) and IL-10”; the “markers characterizing CD4+ T cells obtained from the spleen” value is “TIGIT and CTLA2”. In data set [6], the “phenotype of Thy1.1 CD4+ T cells (SEQ ID NO:1-elicited) in mixed culture” value was “lost their phenotypic characteristics of Th17 cells” and the “proliferation of Thy1.1 CD4+ T cells (SEQ ID NO:1-elicited) in mixed culture” value was “no proliferation”. The “spinal cord inflammatory lesions / infiltration” value in data set [2] was “no inflammatory lesions or T lymphocytes”.
With `CC[C@H](C)[C@H](NC(=O)CNC(=O)[C@@H](NC(=O)[C@H](CS)NC(=O)[C@@H]1CCCN1C(=O)[C@H](Cc1ccc(O)cc1)NC(=O)[C@H](CS)NC(=O)[C@@H](N)Cc1c[nH]cn1)[C@@H](C)O)C(=O)N[C@@H](CC(C)C)C(=O)N[C@@H](CC(=O)O)C(=O)N[C@@H](CO)C(=O)N[C@H](C(=O)NCC(=O)N[C@@H](CCCNC(=N)N)C(=O)N[C@@H](Cc1ccccc1)C(=O)N[C@@H](Cc1ccccc1)C(=O)N[C@@H](CO)C(=O)NCC(=O)O)[C@@H](C)CC` [SEQ ID NO:6, HCYPCTGILDSIGRFFSG] (H-HCYPCTGILDSIGRFFSG-OH), the “signs of disease after immunisation alone” value in data set [3] (4 weekly subcutaneous injections of 100 μg with aluminum hydroxide, no disease induction) is reported as “no signs of disease”.
For the compound “HCYPCILEVKQKGFVPF (GAD65redox) [SEQ ID NO:4]”, the “capacity of recovered CFSE-labeled cells to proliferate upon presentation of cognate epitope (SEQ ID NO:3)” value in data set [7] (cells recovered from co-culture with SEQ ID NO:4-elicited CD4+ T cells) was “lost their capacity to proliferate”. Besides, in data set [7] (co-culture with CD4+ T cells from spleen of mice immunized with SEQ ID NO:4), the “reduction in numbers of CFSE-labelled CD4+ cells (SEQ ID NO:3) by co-culture” value is “circa 5%”. Also, the “islets with no sign of inflammation or cellular infiltrate” value in data set [8] is given as over 70%.
In the case of “NTHEQHLRKS (Sa Nuclease) [SEQ ID NO:7, Staph. aureus nuclease peptide, no redox motif, reference compound]”, in data set [5], the “cytokine production of cells obtained by stimulation” value is reported as “interferon gamma (IFN-γ)” and the “phenotype of cells obtained by stimulation” value is “characteristics of Th1 cells”.
Take “ILEVKQKGFVPFLVS (GAD65 epitope) [SEQ ID NO:3, reference compound]”: the “islets with no sign of inflammation or cellular infiltrate” value in data set [8] was “the reverse”.
